Data published in patent US7557244B2, “Substituted biphenyl carboxylic acids and derivatives thereof” (Ortho-McNeil Pharmaceutical, Inc., priority 2006, dated 2009).
pEC50: −log10 of the molar value.

Tested on: γ-secretase
Assay: Screening for γ-secretase-modulating activity, Aβ 42 in SKNBE2 cells carrying APP 695-wild type
Type: cell-based
Details: for pEC50: read-out: WTAPP SKNBE2 Aβ 42 EC50
Experimental: Screening of the Compounds of the Invention for γ-Secretase-Modulating Activity
Screening was carried out using SKNBE2 cells carrying the APP 695-wild type, grown in DMEM/NUT-mix F12 (HAM) provided by Gibco (cat no. 31330-38) containing 5% Serum/Fe supplemented with 1% non-essential amino acids.
Cells were grown to near confluency.
The screening was performed using the assay as described in Citron et al (1997) Nature Medicine 3: 67.
IC50-Values of Selected Compounds of the Invention on the γ-Secretase Activity.

Compound	WTAPP SKNBE2 Aβ 42 % Inhibition at 3 μM [%]	pEC50
CC(C)CC(C(=O)O)c1cc(Oc2cc(F)cc(C(F)(F)F)c2)cc(-c2cc(F)cc(C(F)(F)F)c2)c1 (stereo not drawn) [Compound 32, 2-[3′-Fluoro-5-(3-fluoro-5-trifluoromethyl-phenoxy)-5′-trifluoromethyl-biphenyl-3-yl]-4-methyl-pentanoic acid]	87	
CC(C)CC(C(=O)O)c1cc(Nc2cc(C(F)(F)F)ccc2C(F)(F)F)cc(-c2cc(C(F)(F)F)cc(C(F)(F)F)c2)c1 (stereo not drawn) [Compound 44, 2-[5-(2,5-Bis-trifluoromethyl-phenylamino)-3′,5′-bis-trifluoromethyl-biphenyl-3-yl]4-methyl-pentanoic acid]		6.62
CC(C)CC(C)(C(=O)O)c1cc(Nc2ccc(C#N)cc2)cc(-c2ccc(C(F)(F)F)cc2)c1 (stereo not drawn) [Compound 14, 2-[5-(4-Cyano-phenylamino)-4′-trifluoromethyl-biphenyl-3-yl]-2,4-dimethyl-pentanoic acid]	17	
CC(C)CC(C(=O)O)c1cc(Nc2ccc(C#N)cc2)cc(-c2ccc(C(F)(F)F)cc2)c1 (stereo not drawn) [Compound 13, 2-[5-(4-Cyano-phenylamino)-4′-trifluoromethyl-biphenyl-3-yl]-4-methyl-pentanoic acid]	52	
CC(C)CC(C(=O)O)c1cc(Nc2cc(F)cc(C(F)(F)F)c2)cc(-c2ccc(Cl)c(C(F)(F)F)c2)c1 (stereo not drawn) [Compound 38, 2-[4′-Chloro-5-(3-fluoro-5-trifluoromethyl-phenylamino)-3′-trifluoromethyl-biphenyl-3-yl]-4-methyl-pentanoic acid]		6.96
CC(C)CC(C(=O)O)c1cc(Nc2ccc(C(F)(F)F)cc2)cc(-c2ccc(C(F)(F)F)cc2)c1 (stereo not drawn) [Compound 11, 4-Methyl-2-[4′-trifluoromethyl-5-(4-trifluoromethyl-phenylamino)-biphenyl-3-yl]-pentanoic acid]		6.30
CC(C)CC(C(=O)O)c1cc(Nc2ccc(F)cc2C(F)(F)F)cc(-c2cc(C(F)(F)F)cc(C(F)(F)F)c2)c1 (stereo not drawn) [Compound 45, 2-[5-(4-Fluoro-2-trifluoromethyl-phenylamino)-3′,5′-bis-trifluoromethyl-biphenyl-3-yl]-4-methyl-pentanoic acid]	85	
CC(C)CC(C(=O)O)c1cc(Nc2cc(C(F)(F)F)ccc2C(F)(F)F)cc(-c2ccc(Cl)c(C(F)(F)F)c2)c1 (stereo not drawn) [Compound 39, 2-[4′-Chloro-5-(2,5-bis-trifluoromethyl-phenylamino)-3′-trifluoromethyl-biphenyl-3-yl]-4-methyl-pentanoic acid]	95	
CC(C)CC(C(=O)O)c1cc(Oc2cc(F)cc(F)c2)cc(-c2cc(C(F)(F)F)cc(C(F)(F)F)c2)c1 (stereo not drawn) [Compound 36, 2-[5-(3,5-Difluoro-phenoxy)-3′,5′-bis-trifluoromethyl-biphenyl-3-yl]-4-methyl-pentanoic acid]	90	
CC(C)CC(C(=O)O)c1cc(Nc2cc(C(F)(F)F)cc(C(F)(F)F)c2)cc(-c2ccc(Cl)c(C(F)(F)F)c2)c1 (stereo not drawn) [Compound 37, 2-[5-(3,5-Bis-trifluoromethyl-phenylamino)-4′-chloro-3′-trifluoromethyl-biphenyl-3-yl]-4-methyl-pentanoic acid]		6.34
CC(C)CC(C(=O)O)c1cc(Oc2cccc(C(F)(F)F)c2)cc(-c2cc(C(F)(F)F)cc(C(F)(F)F)c2)c1 (stereo not drawn) [Compound 35, 2-[3′,5′-Bis-trifluoromethyl-5-(3-trifluoromethyl-phenoxy)-biphenyl-3-yl]-4-methyl-pentanoic acid]	90	
CC(C)CC(C(=O)O)c1cc(Oc2cc(F)cc(F)c2)cc(-c2cc(F)cc(C(F)(F)F)c2)c1 (stereo not drawn) [Compound 33, 2-[5-(3,5-Difluoro-phenoxy)-3′-fluoro-5′-trifluoromethyl-biphenyl-3-yl]-4-methyl-pentanoic acid]	59	
CC(C)CC(C(=O)O)c1cc(Nc2cc(C(F)(F)F)cc(C(F)(F)F)c2)cc(-c2cc(F)cc(C(F)(F)F)c2)c1 (stereo not drawn) [Compound 42, 2-[5′-Fluoro-5-(3,5-bis-trifluoromethyl-phenylamino)-3′-trifluoromethyl-biphenyl-3-yl]-4-methyl-pentanoic acid]	75	
CC(C)CC(C(=O)O)c1cc(Oc2ccc(Cl)cc2)cc(-c2ccc(C(F)(F)F)cc2)c1 (stereo not drawn) [Compound 29, 2-[5-(4-Chloro-phenoxy)-4′-trifluoromethyl-biphenyl-3-yl]-4-methyl-pentanoic acid]	62	
CC(C)CC(C(=O)O)c1cc(Nc2ccc(F)cc2C(F)(F)F)cc(-c2cc(F)cc(C(F)(F)F)c2)c1 (stereo not drawn) [Compound 41, 2-[5′-Fluoro-5-(4-fluoro-2-trifluoromethyl-phenylamino)-3′-trifluoromethyl-biphenyl-3-yl]-4-methyl-pentanoic acid]	67	
CC(C)CC(C(=O)O)c1cc(Oc2cccc(C(F)(F)F)c2)cc(-c2ccc(Cl)c(C(F)(F)F)c2)c1 (stereo not drawn) [Compound 22, 4-Methyl-2-[4′-chloro-3′-trifluoromethyl-5-(3-trifluoromethylphenoxy)-biphenyl-3-yl]-pentanoic acid]	81	
CC(C)CC(C(=O)O)c1cc(Oc2cc(F)cc(F)c2)cc(-c2ccc(Cl)c(C(F)(F)F)c2)c1 (stereo not drawn) [Compound 23, 4-Methyl-2-[4′-chloro-3′-trifluoromethyl-5-(3,5-difluorophenoxy)-biphenyl-3-yl]-pentanoic acid]	80	
CC(C)CC(C(=O)O)c1cc(Oc2ccc(F)cc2)cc(-c2ccc(C(F)(F)F)cc2)c1 (stereo not drawn) [Compound 25, 2-[5-(4-Fluoro-phenoxy)-4′-trifluoromethyl-biphenyl-3-yl]-4-methyl-pentanoic acid]	54	
